What was measured:
IL33 = IL33 expression modulation by RT-qPCR in HEKa cells (Example 7); format: cell-based, Human; conditions: 0.01 mg/mL, 24 hours
Procedure: A stock solution of the peptide was prepared in water at 1 mg/mL. Working solution was freshly prepared at the specified concentration from stock solution in the corresponding supplemented medium.
RNA (ribonucleic acid) extraction and RT-qPCR (reverse transcription quantitative polymerase chain reaction) were performed. Briefly, HDFa and HEKa cells were seeded in duplicate (n=2) in 6-well plates at a density of 4×10^5 cells/well and maintained at standard culture conditions (106 Medium supplemented with 1% (v/v) LSGS for HDFa cells; Medium Epilife supplemented with 1% (v/v) EDGS and 1% (v/v) penicillin/streptomycin for HEKa cells; 37° C., 95% room humidity, 5% CO2) for 24 hours. Then, cells were treated with peptide Ac-SEQ ID NO: 1-NH2, Ac-SEQ ID NO: 2-NH2 or Ac-SEQ ID NO: 3-NH2 at the concentration of 0.01 mg/mL for 24 hours. Untreated cells were used as basal or negative control.
Cells were finally lysed, and replicates were pooled together for RNA extraction using Qiagen RNeasy Mini kit following manufacturer's instructions. Purified RNAs were used to generate the corresponding cDNAs (complementary deoxyribonucleic acids) by reverse transcription using a commercial kit High capacity cDNA reverse transcription kit (Applied Biosystems) which served as templates for amplification. RT-qPCR was performed with the appropriate TaqMan assay probes for IL33 (plus GAPDH—Glyceraldehyde 3-phosphate dehydrogenase—that was used as housekeeping gene) and 2×gene expression Master Mix using StepOne plus Real-Time PCR instrument. […] (Annealing and extension) (Arya, M., Shergill, I. S., Williamson, M., Gommersall, L., Arya, N., Patel, H. R. (2005) Basic principles of real-time quantitative PCR. Expert Rev. Mol. Diagn.; 5(2):209-19; and Jozefczuk, J. and Adjaye, J. (2011) Quantitative real-time PCR-based analysis of gene expression. Methods Enzymol. 500; 99-109).
The obtained data was analysed using the ΔΔCt method, which provides the target gene expression values as fold changes in the treated sample compared with an untreated basal sample. […]

[1] = test system: recombinant mushroom tyrosinase; test: Tyrosinase activity, L-DOPA/dopachrome absorbance (Example 11); format: biochemical; conditions: 0.05-2.5 mg/mL (Ac-SEQ ID NO: 4-NH2: 0.005-2.5 mg/mL); 30 minutes preincubation, L-DOPA, 2 hours, absorbance 450 nm; vs non-treated control (100%)
Procedure: Briefly, different concentrations of Ac-SEQ ID NO: 1-NH2 (0.05, 0.25, 0.5 and 2.5 mg/mL), Ac-SEQ ID NO: 2-NH2 (0.05, 0.25, 0.5 and 2.5 mg/mL), Ac-SEQ ID NO: 3-NH2 (0.05, 0.25, 0.5 and 2.5 mg/mL) and Ac-SEQ ID NO: 4-NH2 (0.005, 0.025, 0.05, 0.25, 0.5 and 2.5 mg/mL) and the positive control kojic acid (400 and 800 μM) were incubated with recombinant mushroom tyrosinase for 30 minutes before the addition of L-DOPA (L-3,4 dihidroxiphenilalanine, 2.5 mg/mL in PBS). After 2 hours' reaction at room temperature, the absorbance at 450 nm of each well was determined using the microplate reader Multiskan FC (Thermo Fisher Scientific, Mass., USA), which is directly proportional to the amount of dopachrome in the reaction mixture.

IL-33 = test: Production of protein IL-33 in HDFa cells stimulated with IFNγ, ELISA (Example 8); format: cell-based, human; conditions: HDFa cells exposed to IFNγ (300 U/mL), 0.005, 0.01 and 0.05 mg/mL, 24 hours, cell lysates
Procedure: Adult human dermal fibroblasts (HDFa) were seeded on 24-well plate at concentration of 1×10^5 cells/mL in their corresponding growth media and incubated for 24 hours in standard culture conditions; at that time, three different concentrations (0.005, 0.01 and 0.05 mg/mL) of the Ac-SEQ ID NO: 1-NH2 were added in presence of IL-33-induction stimulus (IFNγ, 300 U/mL). Cells without stimuli were also included as basal group. Positive control group was cells treated with 300 U/mL of IFNγ, but without being treated with a peptide of the present invention. 24 hours later, conditioned media was collected, and cells processed for protein extraction.
IL-33 levels in the cell lysates were analysed with a commercial ELISA kit (DuoSet ELISA. R&D). Absorbances were measured with an automated spectrophotometer plate-reader.

“Ac-Arg-Arg-Gln-Met-Arg-Glu-NH2 (Ac-RRQMRE-NH2) [Ac-SEQ ID NO: 1-NH2]” was tested, and the “IL33 gene expression, fold change in treated cells with regard to basal control” value (IL33) was −4.58 fold change, the tyrosinase activity [1] was “inhibited tyrosinase in all the concentrations tested” and the IL-33 protein levels (IL-33) was “reduces the IL-33 protein levels produced by HDFa cells exposed to IFNγ (300 U/mL) in a dose-dependent manner”.

— US20220389058A1, “PEPTIDES AND COMPOSITIONS FOR USE IN COSMETICS AND MEDICINE” (LIPOTRUE, S.L., priority 2019, published 2022)
